The values below come from US20030040485A1, “alpha/beta-adrenoceptors blockers and angiotensin converting enzyme inhibitors derived from hydroxyphenyl carboxylic acid and alcohol” (priority 2001, published 2003).

For one test, the system named is α1-adrenoceptor (aorta). Nature of the test: α-adrenoceptor antagonism, isolated rat aorta, pA2 vs norepinephrine. Also noted: species or system Wistar rat. Particulars: Schild plot, mean ± SEM of six to eight experiments. As for the experimental part:
Vascular α-adrenoceptor blocking activity was evaluated in the Wistar rat aorta preparation. Isolated rat aorta preparations were mounted in organ bath and suspended in Krebs solution at 37° C. […] or 75 mM KCl was added to the bath medium after a control concentration-response curve to norepinephrine had been obtained. The tissue was exposed to test compounds for 30 min before rechallenging with norepinephrine. Inhibitions were expressed as percentages of the maximum contraction obtained by the challenge of the tissues with norepinephrine. The 70 mM NaCl on 75 mM KCl solution may to replace with equimolar KCl, if necessary.
The methods published by Huang Y C. et. al. in J Cardiovasc Pharmacol.34, pp.10-20 (1999) and Drug Devel Res. 47, 77-89 (1999). Through referenced and modified method to evaluate, test compounds whether have α1-adrenergic and sertoninergic effect.
Isolated Wistar rat aorta preparations were mounted in organ bath and suspended in Krebs solution (NaCl, 118 mM, KCl, 4.8 mM; CaCl,2.5 mM; MgSO4,1.2 mM; K2PO4,1.2 Mm; […] Mm; glucose, 11 mM) at 37° C. under 1 g resting tension.
Upon balancing for 60 minutes, 10^−10-10^−4 M norepinephrine is administered directly from low concentration to high using 0.5 log unit to gradually increase until the maximum reaction is reached, and this act as the control unit. Then different concentrations of the synthetic testing compounds, 10^−7 M, 10^−6 M, or 10^−5M, are used, and upon 30 minutes of reaction, norepinephrine is used again to complete the cumulative dose. The EC50 value of blocking […] may be obtained from observation of the suppressing effects caused by different concentrations of the synthetic testing compound.
The equation is as follows: […]

The subject of test [1] is β2-adrenoceptor (trachea). The test is described as follows: β2-adrenoceptor antagonism, trachea, pA2. Particulars: Schild plot, mean ± SEM of six to eight experiments. Also on record: species or system rat.
Experimental: (§1) When the spontaneously beating rate of right atria reached a certain stability, cumulative administration of L-isoproterenol from 1×10^−10˜3×10^−10 M caused the heart rate to increase continuously, and a cumulative dose-response curve was obtained. Then the L-isoproterenol was thoroughly washed off with Kreb's solution to recover the right atria's heart rate stability. After the equilibrum was reached again for at least 60 minutes, different concentrations (10^−7, 10^−6, 10^−5 M) of compounds were added. 30 minutes later, cumulative administration of L-isoproterenol from 1×10^−10˜3×10^−10 M were carried out again, and another new cumulative dose-response curve was obtained. Administration of L-isoproterenol started from concentration 1×10^−10 M, and the concentration was raised 0.5 log each time for a total of six times. Cumulative administration interval was when the previous concentration reached its greatest effect, the next concentration would be immediately given. […] In other groups of rats, after separate administration of test compounds, their pA2 values were obtained.
pA2=−Log KB Log(DRADJ−1)=n log[B]−LogKB
Test [2] deals with β1-adrenoceptor (left atrium) (Rattus norvegicus, UniProt P18090). Nature of the test: β1-adrenoceptor antagonism, left atrium, pA2. Particulars: Schild plot, mean ± SEM of six to eight experiments.
The subject of test [3] is β1-adrenoceptor (right atrium). Nature of the test: β1-adrenoceptor antagonism, spontaneously beating right atrium, pA2 vs L-isoproterenol. Particulars: for β1/β2 Ratio: antilogarithm of difference between mean pA2 of right atrium and trachea; for β1 pA2 value, Right atrium: Schild plot, mean ± SEM of six to eight experiments.
Experimental: The spontaneously-beating right atria was clipped on both end by heart shaped clips, where one end was fixed at the bottom of 10 ml of tissue bath made of physiological saline solution, and temperature maintained at 37° C. The other end of the atria was connected to a force transducer, and isometric contractions and beating rate of the right atria were recorded by COULBOURN AT-High-Speed VideoFigure. After the samples were given 250 mg of contractions and reach equilibrium the following experiments were carried out:
as §1
pA2=−Log KB Log(DRADJ−1)=n log[B]−LogKB
The target of test [4] is T1, angiotensin converting enzyme (ACE) (Rattus norvegicus, UniProt P47820).
T1 construct: Centrifuged 250-300 mg lung tissue; from tissue; host or cells: rat lung membrane fraction
T1 sequence (P47820 36-1313): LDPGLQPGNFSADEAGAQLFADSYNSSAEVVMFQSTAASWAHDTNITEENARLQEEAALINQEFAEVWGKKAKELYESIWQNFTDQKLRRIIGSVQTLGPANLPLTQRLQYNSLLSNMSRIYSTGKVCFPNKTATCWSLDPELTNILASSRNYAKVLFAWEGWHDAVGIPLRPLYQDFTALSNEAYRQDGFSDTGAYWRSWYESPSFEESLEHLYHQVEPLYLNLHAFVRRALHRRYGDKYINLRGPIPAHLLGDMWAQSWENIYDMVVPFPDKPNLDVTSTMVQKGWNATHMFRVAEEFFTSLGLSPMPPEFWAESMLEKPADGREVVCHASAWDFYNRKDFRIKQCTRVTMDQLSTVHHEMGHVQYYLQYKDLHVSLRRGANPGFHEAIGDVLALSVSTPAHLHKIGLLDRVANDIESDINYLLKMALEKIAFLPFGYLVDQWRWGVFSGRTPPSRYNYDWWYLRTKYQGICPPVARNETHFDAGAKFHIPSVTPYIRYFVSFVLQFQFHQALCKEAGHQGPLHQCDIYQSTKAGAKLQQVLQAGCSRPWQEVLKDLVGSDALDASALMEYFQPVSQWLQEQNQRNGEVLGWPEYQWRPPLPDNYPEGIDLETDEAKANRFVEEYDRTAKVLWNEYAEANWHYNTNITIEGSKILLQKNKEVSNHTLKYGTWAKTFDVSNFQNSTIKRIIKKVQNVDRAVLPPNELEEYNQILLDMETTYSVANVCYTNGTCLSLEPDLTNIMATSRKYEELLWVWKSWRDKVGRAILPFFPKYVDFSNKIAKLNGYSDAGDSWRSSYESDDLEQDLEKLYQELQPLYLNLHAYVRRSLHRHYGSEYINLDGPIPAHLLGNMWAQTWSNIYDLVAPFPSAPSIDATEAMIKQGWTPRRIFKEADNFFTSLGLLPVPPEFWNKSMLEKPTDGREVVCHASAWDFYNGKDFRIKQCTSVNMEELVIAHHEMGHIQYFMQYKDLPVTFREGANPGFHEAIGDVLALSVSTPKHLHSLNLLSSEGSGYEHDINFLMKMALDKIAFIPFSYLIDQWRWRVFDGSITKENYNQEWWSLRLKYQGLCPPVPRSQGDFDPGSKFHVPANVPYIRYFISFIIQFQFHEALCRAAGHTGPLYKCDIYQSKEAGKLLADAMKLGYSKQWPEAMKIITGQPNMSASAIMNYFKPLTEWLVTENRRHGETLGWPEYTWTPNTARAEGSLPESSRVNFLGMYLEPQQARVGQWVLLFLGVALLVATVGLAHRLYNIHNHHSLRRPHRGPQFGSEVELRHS
Nature of the test: ACE activity value on tissue (rat lung membrane, Hip-His-Leu, fluorometric). The class given is biochemical. Particulars: mean of three samples. Here is the method: Centrifuged 250-300 mg lung tissue, 3 ml extracted liquid (10 mmol/L HEPES, 125 mmol/L NaCl, pH7.4) under 12000 g for 20 minutes at 4° C. by Teflon-glass homogenizer, the cell membrane was obtained. The 3 ml homogenized liquid was added into twice, before and after centrifuged. Then the Lowry's method was adopted to determine the protein content in the membrane. Mixing 15 minute of liquid and 30 mmol/L Hip-His-Leu solution at 37° C. Fluorometric was used to determine the Hippurate content. test compounds (10^−8M, 10^−7M, 10^−6M) dissolved in PBS normal saline and used as control group. Then ACE activity inhibition rate was determined.

Test [5] concerns the target T2, angiotensin converting enzyme (ACE) (Rattus norvegicus, UniProt P47820).
T2 construct: from tissue; host or cells: rat serum
T2 sequence (P47820 36-1238 limits assumed): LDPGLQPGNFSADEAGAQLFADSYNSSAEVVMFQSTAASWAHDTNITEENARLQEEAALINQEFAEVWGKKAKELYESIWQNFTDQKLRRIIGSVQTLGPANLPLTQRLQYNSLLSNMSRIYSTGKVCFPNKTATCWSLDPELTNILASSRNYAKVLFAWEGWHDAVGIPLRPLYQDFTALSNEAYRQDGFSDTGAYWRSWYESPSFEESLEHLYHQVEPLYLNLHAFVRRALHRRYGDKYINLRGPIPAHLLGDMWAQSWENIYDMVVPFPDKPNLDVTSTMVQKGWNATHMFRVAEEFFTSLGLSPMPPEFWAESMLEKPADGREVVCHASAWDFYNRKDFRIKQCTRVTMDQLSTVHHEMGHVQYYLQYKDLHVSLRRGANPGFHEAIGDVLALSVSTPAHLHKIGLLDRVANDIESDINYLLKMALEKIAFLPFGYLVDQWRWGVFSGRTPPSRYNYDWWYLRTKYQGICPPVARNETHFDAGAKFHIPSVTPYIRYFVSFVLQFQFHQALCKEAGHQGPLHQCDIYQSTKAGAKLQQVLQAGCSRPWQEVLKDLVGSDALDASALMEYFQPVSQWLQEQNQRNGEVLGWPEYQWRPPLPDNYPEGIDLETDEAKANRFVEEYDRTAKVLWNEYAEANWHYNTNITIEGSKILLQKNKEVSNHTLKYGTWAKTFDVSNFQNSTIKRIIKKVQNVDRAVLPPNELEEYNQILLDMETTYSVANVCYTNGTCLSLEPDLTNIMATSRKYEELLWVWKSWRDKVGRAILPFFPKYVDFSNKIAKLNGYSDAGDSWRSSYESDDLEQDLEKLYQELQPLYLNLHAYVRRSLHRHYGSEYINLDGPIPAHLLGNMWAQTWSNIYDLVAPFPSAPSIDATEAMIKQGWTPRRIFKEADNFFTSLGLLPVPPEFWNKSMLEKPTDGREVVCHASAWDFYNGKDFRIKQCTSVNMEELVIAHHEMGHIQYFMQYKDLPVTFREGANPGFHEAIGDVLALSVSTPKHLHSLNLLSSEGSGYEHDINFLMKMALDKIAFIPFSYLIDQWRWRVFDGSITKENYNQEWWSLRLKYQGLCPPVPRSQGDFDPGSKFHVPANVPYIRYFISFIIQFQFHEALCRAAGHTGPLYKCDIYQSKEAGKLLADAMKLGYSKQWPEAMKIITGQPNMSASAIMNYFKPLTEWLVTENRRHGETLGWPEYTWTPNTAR
Nature of the test: ACE inhibitory activity in rat serum (Hycor kit, [3H]-hippuryl-glycyl-glycine). Particulars: mean of three samples. Type of test: biochemical. As for the experimental part:
ACE value in serum was determined by Hycor kit, rat serum were cultured in 37° C. of [^3H]-hippuryl-glycyl-glycine for 60 minutes. While [^3H]-hippuryl-glycyl-glycine contains three peptide. [^3H] hippuric acid was obtained when extracted of culture solution with ethyl acetate, the content be determined by spectrophotometer. The content in serum sample was as the control group after it was added with 10^−8M, 10^−7M, 10^−6M compounds, then dissolved in PBS.

For test [6], the system named is blood pressure of normotensive male Wistar rats. Nature of the test: Heart rate and blood pressure in living rat (i.v., anaesthetized). The class given is in vivo. Particulars: maximal decrease, 2 mg/kg i.v. The source says:
Normotensive Male Wistar rats (NTRs), weighing 200˜300 g were abdominal anaesthetized with pentobarbital sodium. Tracheal was cannulated to maintain normal respiration. Polyethylene tube was inserted into the left femoral vein to facilitate drug administration. A 3-way stopcock was used, with one end comnected to a syringe for drug injection, while the other end was connected to the syringe filled with physiological saline. The latter was used to prevent residual drugs in the polyethylene tube after injection, which would affect experimental accuracy.
The right femoral artery was also inserted with polyethylene, and a 3-way stopcock was used tool, where one end was connected to heparin solution to prevent embolism. The other end was comnected to a Disposable Diaphragm Dome, TA1019, and linked to a pressure transducer (Model P10EZ; Spectramed, Oxnard, Calif., USA). Through an amplifier, a recorder recorded the overall and average arterial pressure; heart rate to evaluate the effect of drug on blood pressure and heart rate. Different concentrations 0.1, 1.0, 2.0, 3.0 mg/kg of test compounds were given to the rats via femoral vein and the differences in the heart rate and blood pressure were compared. Table 2 shown maximal decrease of blood pressure affect of compounds after given 2.0 mg/kg test compounds to the rats.

Sequence of β1-adrenoceptor (left atrium) (P18090 whole entry): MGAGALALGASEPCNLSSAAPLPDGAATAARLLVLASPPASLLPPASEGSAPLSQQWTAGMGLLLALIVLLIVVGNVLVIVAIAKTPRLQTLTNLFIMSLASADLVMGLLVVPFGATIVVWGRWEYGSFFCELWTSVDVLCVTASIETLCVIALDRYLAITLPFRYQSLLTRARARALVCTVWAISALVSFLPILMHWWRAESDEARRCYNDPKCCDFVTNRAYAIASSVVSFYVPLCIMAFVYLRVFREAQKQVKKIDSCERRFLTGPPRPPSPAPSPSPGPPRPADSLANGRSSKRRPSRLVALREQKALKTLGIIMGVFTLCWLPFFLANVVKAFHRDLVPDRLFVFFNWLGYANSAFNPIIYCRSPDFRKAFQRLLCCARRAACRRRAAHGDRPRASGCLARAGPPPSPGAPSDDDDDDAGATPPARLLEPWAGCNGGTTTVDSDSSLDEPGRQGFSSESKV

For `CC(C)NCC(O)COc1cccc2ccccc12` (centres unmarked) [propranolol, reference compound], the “α1 pA2 value, Aorta” value with α1-adrenoceptor (aorta) is reported as below 5.00. For the same molecule, the “β2 pA2 value, Trachea” value in test [1] was determined as 8.07.

As to `CC(CCc1ccccc1)NCC(O)c1ccc(O)c(C(N)=O)c1` (centres unmarked) [labetalol, reference compound], the “α1 pA2 value, Aorta” value with α1-adrenoceptor (aorta) was determined as 6.87. The molecule further showed a Kb in test [2] of 28.8 nM. Also, the “β2 pA2 value, Trachea” value in test [1] is reported as 7.54. In test [3], the “β1/β2 Ratio” value is reported as 2.3 and the “β1 pA2 value, Right atrium” value worked out at 7.91.

Turning to `CCOC(=O)[C@H](CCc1ccccc1)N[C@@H](C)C(=O)N1CCC[C@H]1C(=O)O` [Enalapril, reference compound], the inhibition at 1 µM in test [4] (10^−6M, read-out: Inhibitory activity of ACE, In Rat lung) was determined as 98%; in test [5] (10^−6M), 99%. Also, the inhibition at 0.1 µM in test [4] (10^−7M, read-out: Inhibitory activity of ACE, In Rat lung) came out at 93%; in test [5] (10^−7M), 94%. In test [4] (10^−8M), the “Inhibitory activity of ACE, In Rat lung” value turned out to be 51%. Besides, the inhibition at 0.01 µM in test [5] (10^−8M) was 54%.

Take `COc1cc(CO)ccc1OCC(O)CNC(C)(C)C` (centres unmarked) [compound 2, Vanynolol]: the “α1 pA2 value, Aorta” value in the test with α1-adrenoceptor (aorta) was 7.23. The “β1 pA2 value, Left atrium” value in test [2] is 6.84. The “Decrease of blood pressure” value in test [6] amounted to 72 ± 2.5 mmHg. Besides, the “β2 pA2 value, Trachea” value in test [1] was found to be 6.61. In test [3], the “β1/β2 Ratio” value was 2.3 and the “β1 pA2 value, Right atrium” value came out at 6.67.

Consider `COc1ccccc1OCCNCC(O)COc1ccc(CO)cc1OC` (centres unmarked) [compound 4, Vanydilol], for which the “α1 pA2 value, Aorta” value with α1-adrenoceptor (aorta) worked out at 7.89. Besides, the “β1 pA2 value, Left atrium” value in test [2] stood at 6.76. The “Decrease of blood pressure” value in test [6] was determined as 83 ± 9.1 mmHg. In addition, the “β2 pA2 value, Trachea” value in test [1] was found to be 6.69. Further, in test [3], the “β1/β2 Ratio” value turned out to be 1.6 and the “β1 pA2 value, Right atrium” value is 6.72.

Take `CC(C)NCC(O)COc1ccc(CC(N)=O)cc1` (centres unmarked) [atenolol, reference compound]: the “α1 pA2 value, Aorta” value in the test with α1-adrenoceptor (aorta) was below 5.00. Moreover, in test [1], the “β2 pA2 value, Trachea” value is given as 5.81. The “β1 pA2 value, Right atrium” value in test [3] came out at 7.34.

For `CCOC(=O)CCc1ccc(OCC(O)CNCCOc2ccccc2OC)cc1` (centres unmarked) [compound 3, Propiodilol], the “β1 pA2 value, Left atrium” value in test [2] is 6.78. Further, the “Decrease of blood pressure” value in test [6] is reported as 56 ± 3.8 mmHg. For the same molecule, the “β2 pA2 value, Trachea” value in test [1] worked out at 6.71. For the same molecule, in test [3], the “β1/β2 Ratio” value was determined as 1.9 and the “β1 pA2 value, Right atrium” value was found to be 6.74.

For the molecule “1-[(4 -Propenoic acid ethyl ester)phenoxy-3-amino]-propanol [compound 1]”, in test [2], the “β1 pA2 value, Left atrium” value was determined as 6.92. For the same molecule, the “Decrease of blood pressure” value in test [6] is given as 60 ± 4.7 mmHg. For the same molecule, the “β2 pA2 value, Trachea” value in test [1] was determined as 6.43. Besides, in test [3], the “β1/β2 Ratio” value is recorded as 2.1 and the “β1 pA2 value, Right atrium” value worked out at 6.83.
